Source: patent US9113629B2, “4-amino-6-(4-substituted-phenyl)-picolinates and 6-amino-2-(4-substituted-phenyl)-pyrimidine-4-carboxylates and their use as herbicides” (DOW AGROSCIENCES LLC, priority 2013, dated 2015)
Where two headings read alike, the source gives them in different places.

Key:
[1] = test system: Key Grass and Sedge Weeds as well as Grass Crops; test: Post-emergent Test II herbicidal activity (Table 6); type: in vivo; conditions: post-emergence, 336 h; for pest or weed control at 70 g/ha: application rate 70 g ai/ha; for pest or weed control at 140 g/ha: application rate 140 g ai/ha
Protocol: (§1) Post-emergent Test II: Seeds or nutlets of the desired test plant species were planted in Sun Gro Metro-Mix® 360 planting mixture, which typically has a pH of 6.0 to 6.8 and an organic matter content of about 30 percent, in plastic pots with a surface area of 64 square centimeters. When required to ensure good germination and healthy plants, a fungicide treatment and/or other chemical or physical treatment was applied. The plants were grown for 7-21 d in a greenhouse with an approximate 15 h photoperiod which was maintained at about 23-29° C. during the day and 22-28° C. during the night. Nutrients and water were added on a regular basis and supplemental lighting was provided with overhead metal halide 1000-Watt lamps as necessary. The plants were employed for testing when they reached the first or second true leaf stage.
(§2) A weighed amount, determined by the highest rate to be tested, of each test compound was placed in a 25 mL glass vial and was dissolved in 4 mL of a 97:3 v/v mixture of acetone and DMSO to obtain concentrated stock solutions. […] The concentrated stock solutions obtained were diluted with 20 mL of an aqueous mixture containing acetone, water, isopropyl alcohol, DMSO. Atplus 411F crop oil concentrate, and Triton® X-155 surfactant in a 48.5:39:10:1.5:1.0:0.02 v/v ratio to obtain spray solutions containing the highest application rates. Additional application rates were obtained by serial dilution of 12 mL of the high rate solution into a solution containing 2 mL of 97:3 v/v mixture of acetone and DMSO and 10 mL of an aqueous mixture containing acetone, water, isopropyl alcohol, DMSO, Atplus 411F crop oil concentrate, and Triton X-155 surfactant in a 48.5:39:10:1.5:1.0:0.02 v/v ratio to obtain ½×, ¼×, ⅛× and 1/16× rates of the high rate. Compound requirements are based upon a 12 mL application volume at a rate of 187 liters per hectare (L/ha). Formulated compounds were applied to the plant material with an overhead Mandel track sprayer equipped with 8002E nozzles calibrated to deliver 187 L/ha over an application area of 0.503 square meters at a spray height of 18 inches (43 cm) above the average plant canopy height. Control plants were sprayed in the same manner with the solvent blank.
(§3) The treated plants and control plants were placed in a greenhouse as described above and watered by subirrigation to prevent wash-off of the test compounds. After 14 d, the condition of the test plants as compared with that of the untreated plants was determined visually and scored on a scale of 0 to 100 percent where 0 corresponds to no injury and 100 corresponds to complete kill.

[2] = test system: Key Broadleaf Weed and Crop Species; test: Post-emergent Test II herbicidal activity (Table 5); type: in vivo; conditions: post-emergence, 336 h, 14 days after application; for pest or weed control at 70 g/ha: application rate 70 g ai/ha
Protocol: as §1, §2, §3

[3] = Triticum aestivum, TRZSS (wheat), read-out: Visual Growth Reduction (%) 14 Days After Application, TRZSS
[4] = CYPES: yellow nutsedge (Cyperus esculentus), read-out: Visual Growth Reduction (%) 14 Days After Application, CYPES
[5] = DIGSA: crabgrass (Digitaria sanguinalis), read-out: Visual Growth Reduction (%) 14 Days After Application, DIGSA
[6] = ORYSA: rice (Oryza sativa), read-out: Visual Growth Reduction (%) 14 Days After Application, ORYSA
[7] = SETFA: giant foxtail (Setaria faberi), read-out: Visual Growth Reduction (%) 14 Days After Application, SETFA
[8] = SORVU: grain sorghum (Sorghum vulgare), read-out: Visual Growth Reduction (%) 14 Days After Application, SORVU
[9] = ZEAMX: maize, corn (Zea mays), read-out: Visual Growth Reduction (%) 14 Days After Application, ZEAMX
[10] = ABUTH: velvetleaf (Abutilon theophrasti), read-out: Visual Growth Reduction (%) 14 Days After Application, ABUTH
[11] = ABUTH: velvetleaf (Abutilon theophrasti), application rate 140 g ai/ha, read-out: Visual Growth Reduction (%) 14 Days After Application, ABUTH
[12] = AMARE: redroot pigweed (Amaranthus retroflexus), read-out: Visual Growth Reduction (%) 14 Days After Application, AMARE
[13] = AMARE: redroot pigweed (Amaranthus retroflexus), application rate 140 g ai/ha, read-out: Visual Growth Reduction (%) 14 Days After Application, AMARE
[14] = BRSNN: oilseed-rape, canola (Brassica napus), read-out: Visual Growth Reduction (%) 14 Days After Application, BRSNN
[15] = BRSNN: oilseed-rape, canola (Brassica napus), application rate 140 g ai/ha, read-out: Visual Growth Reduction (%) 14 Days After Application, BRSNN
[16] = CHEAL: lambsquarters (Chenopodium album), read-out: Visual Growth Reduction (%) 14 Days After Application, CHEAL
[17] = CHEAL: lambsquarters (Chenopodium album), application rate 140 g ai/ha, read-out: Visual Growth Reduction (%) 14 Days After Application, CHEAL
[18] = EPHHL: wild poinsettia (Euphorbia heterophylla), read-out: Visual Growth Reduction (%) 14 Days After Application, EPHHL
[19] = EPHHL: wild poinsettia (Euphorbia heterophylla), application rate 140 g ai/ha, read-out: Visual Growth Reduction (%) 14 Days After Application, EPHHL
[20] = HELAN: sunflower (Helianthus annuus), read-out: Visual Growth Reduction (%) 14 Days After Application, HELAN
[21] = HELAN: sunflower (Helianthus annuus), application rate 140 g ai/ha, read-out: Visual Growth Reduction (%) 14 Days After Application, HELAN
[22] = VIOTR: wild pansy (Viola tricolor), read-out: Visual Growth Reduction (%) 14 Days After Application, VIOTR
[23] = VIOTR: wild pansy (Viola tricolor), application rate 140 g ai/ha, read-out: Visual Growth Reduction (%) 14 Days After Application, VIOTR
[24] = ECHCG: barnyardgrass (Echinochloa crus-galli), read-out: Visual Growth Reduction (%) 14 Days After Application, ECHCG

Structure (SMILES) | pest or weed control at 70 g/ha [1, 3] [%] | pest or weed control at 140 g/ha [1, 3] [%] | pest or weed control at 70 g/ha [1, 5] [%] | pest or weed control at 140 g/ha [1, 5] [%] | pest or weed control at 70 g/ha [1, 6] [%] | pest or weed control at 140 g/ha [1, 6] [%] | pest or weed control at 70 g/ha [1, 7] [%] | pest or weed control at 140 g/ha [1, 7] [%] | pest or weed control at 70 g/ha [1, 8] [%] | pest or weed control at 140 g/ha [1, 8] [%] | pest or weed control at 70 g/ha [1, 9] [%] | pest or weed control at 140 g/ha [1, 9] [%] | pest or weed control at 70 g/ha [2, 10] [%] | pest or weed control at 140 g/ha [2, 11] [%] | pest or weed control at 70 g/ha [2, 12] [%] | pest or weed control at 70 g/ha [2, 14] [%] | pest or weed control at 70 g/ha [2, 16] [%] | pest or weed control at 70 g/ha [2, 18] [%] | pest or weed control at 70 g/ha [2, 20] [%] | pest or weed control at 70 g/ha [2, 22] [%] | other results
COC(=O)c1nc(-c2cccc(F)c2)c(F)c(N)c1Cl [Compound 183] | 0 to 29 | 0 to 29 | 0 to 29 | 0 to 29 | 0 to 29 | 0 to 29 | 0 to 29 | 0 to 29 | 30 to 44 | 45 to 59 | 0 to 29 | 0 to 29 | 75 to 84 | 95 to 100 | 95 to 100 | 60 to 74 | 95 to 100 | 95 to 100 | 85 to 94 | 0 to 29 | pest or weed control at 70 g/ha [1, 4]: 0 to 29%; pest or weed control at 140 g/ha [1, 4]: 0 to 29%; pest or weed control at 140 g/ha [2, 13]: 95 to 100%; pest or weed control at 140 g/ha [2, 15]: 85 to 94%; pest or weed control at 140 g/ha [2, 17]: 95 to 100%; pest or weed control at 140 g/ha [2, 19]: 95 to 100%; pest or weed control at 140 g/ha [2, 21]: 85 to 94%; pest or weed control at 140 g/ha [2, 23]: 0 to 29%
COc1c(N)nc(-c2ccc(C(F)(F)F)c(F)c2)nc1C(=O)O [Compound 63] | 60 to 74 | 60 to 74 | 60 to 74 | 60 to 74 | 0 to 29 | 0 to 29 |  | 95 to 100 | 0 to 29 | 30 to 44 | 60 to 74 | 60 to 74 | 60 to 74 |  | 60 to 74 | 75 to 84 | 85 to 94 | 95 to 100 | 85 to 94 | 75 to 84 | pest or weed control at 70 g/ha [1, 24]: 75 to 84%; pest or weed control at 140 g/ha [1, 24]: 95 to 100%; pest or weed control at 140 g/ha ([2]; ABUTH: velvetleaf (Abutilon theophrasti), 140 g ai/ha, post-emergent, read-out: Visual Growth Reduction (%) 14 Days After Application ABUTH): 85 to 94%; pest or weed control at 140 g/ha ([2]; AMARE: redroot pigweed (Amaranthus retroflexus), 140 g ai/ha, post-emergent, read-out: Visual Growth Reduction (%) 14 Days After Application AMARE): 75 to 84%; pest or weed control at 140 g/ha ([2]; BRSNN: oilseed-rape, canola (Brassica napus), 140 g ai/ha, post-emergent, read-out: Visual Growth Reduction (%) 14 Days After Application BRSNN): 85 to 94%; pest or weed control at 140 g/ha ([2]; CHEAL: lambsquarters (Chenopodium album), 140 g ai/ha, post-emergent, read-out: Visual Growth Reduction (%) 14 Days After Application CHEAL): 95 to 100%; pest or weed control at 140 g/ha ([2]; EPHHL: wild poinsettia (Euphorbia heterophylla), 140 g ai/ha, post-emergent, read-out: Visual Growth Reduction (%) 14 Days After Application EPHHL): 95 to 100%; pest or weed control at 140 g/ha ([2]; HELAN: sunflower (Helianthus annuus), 140 g ai/ha, post-emergent, read-out: Visual Growth Reduction (%) 14 Days After Application HELAN): 85 to 94%; pest or weed control at 140 g/ha ([2]; VIOTR: wild pansy (Viola tricolor), 140 g ai/ha, post-emergent, read-out: Visual Growth Reduction (%) 14 Days After Application VIOTR): 95 to 100%
COC(=O)c1nc(-c2ccc(C(F)(F)F)c(F)c2)nc(N)c1OC [Compound 26, methyl 6-amino-2-(3-fluoro-4-(trifluoromethyl)phenyl)-5-methoxypyrimidine-4-carboxylate] | 45 to 59 | 45 to 59 | 0 to 29 | 0 to 29 | 0 to 29 | 0 to 29 | 0 to 29 | 0 to 29 | 0 to 29 | 0 to 29 | 0 to 29 | 45 to 59 | 85 to 94 | 85 to 94 | 60 to 74 | 30 to 44 | 0 to 29 | 95 to 100 | 85 to 94 | 0 to 29 | pest or weed control at 70 g/ha [1, 24]: 0 to 29%; pest or weed control at 140 g/ha [1, 24]: 0 to 29%; pest or weed control at 140 g/ha [2, 13]: 75 to 84%; pest or weed control at 140 g/ha [2, 15]: 30 to 44%; pest or weed control at 140 g/ha [2, 17]: 0 to 29%; pest or weed control at 140 g/ha [2, 19]: 95 to 100%; pest or weed control at 140 g/ha [2, 21]: 85 to 94%; pest or weed control at 140 g/ha [2, 23]: 0 to 29%
